{
  "source": "patent US8754233B2",
  "about": "“Pyrazolylbenzothiazole derivatives and their use as therapeutic agents” (Dermira (Canada), Inc., priority 2002, dated 2014)",
  "key": {"PC3 Cells": {"system": "PC3 Cells", "test": "Tumor cell migration assay", "type": "cell-based", "settings": "Homo sapiens, PC-3, 25 μM compound", "method": "The invasion test system (BD Bioscience's BioCoat™ FluoroBlok™ Invasion System including BD BioCoat™ Matrigel™ Invasion Chambers with the fluorescence blocking membrane FluoroBlok™ 24-Multiwell Insert System™) is removed from the package from −20° C. storage and allowed to warm to ambient temperature. PBS is added to the interior of the inserts and they are allowed to rehydrate for 2 hours at 37° C. The medium is then removed and 450 μL cell suspensions of tumor cells (grown to 50-70% confluence, trypsinized, and resuspended in medium without serum at 1×10^6/mL) is added to the top chamber. Test compounds are added to the top chamber at 10× the desired final concentration in 50 μL volumes. DMSO acts as the control. […]\nData is expressed as fluorescence units (FU) from the sum of middle 25 areas per 24-well or as percentage of invasion inhibition by following formula: % of invasion inhibition=100−FU of compound treated cell invasion/FU of DMSO treated cell invasion*100.\nTumor cell migration assay was conducted in the similar way as described in Example 16 except that the plates used were constructed with only a porous membrane dividing a top and bottom chamber without the additional thin Matrigel™ layer on top of the membrane (BD Fluoroblock™ plates). The percent inhibition of migration was determined in the same way as illustrated in Example 16."}, "ILK": {"target": "ILK (Homo sapiens (Human), UniProt Q13418)", "sequence (Q13418 whole entry)": "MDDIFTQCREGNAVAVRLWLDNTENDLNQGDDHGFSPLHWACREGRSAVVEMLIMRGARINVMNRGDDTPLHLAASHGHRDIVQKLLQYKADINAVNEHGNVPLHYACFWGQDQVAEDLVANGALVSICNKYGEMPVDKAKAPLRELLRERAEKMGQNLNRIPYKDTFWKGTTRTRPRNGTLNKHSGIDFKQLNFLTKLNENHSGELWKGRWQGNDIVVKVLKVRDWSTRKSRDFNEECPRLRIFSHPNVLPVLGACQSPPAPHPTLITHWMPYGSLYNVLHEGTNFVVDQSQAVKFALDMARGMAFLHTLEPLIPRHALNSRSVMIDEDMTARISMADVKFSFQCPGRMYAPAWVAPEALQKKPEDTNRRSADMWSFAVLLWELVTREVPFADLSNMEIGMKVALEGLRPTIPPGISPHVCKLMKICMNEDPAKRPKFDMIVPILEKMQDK", "test": "Inhibition of ILK in vitro enzyme assay", "settings": "read-out: IC50 avg. value; recombinant ILK, [γ-32P]-ATP, 15 minutes at ambient temperature", "from_the_text": "The target ILK is a full-length recombinant protein expressed in Hi5 insect cells by baculovirus infection. Recombinant ILK protein was expressed using cultured insect cells and a baculovirus expression system. […] This ILK transfer construct was then co-transfected with BaculoGold™ DNA (Pharmingen) into Sf9 insect cells (Invitrogen) and a high titre preparation of GST-ILK recombinant baculovirus was produced by amplification in Sf9 cells. Liter scale expression of GST-ILK recombinant protein was done in 1000 mL spinner flasks (Bellco) by infection of Hi5 insect cells (Invitrogen) grown in Ex-Cell™ 400 serum free media (JRH Biosciences) at a multiplicity of infection of approximately 5. […]\nFrom each assay mixture, 10 μL of assay mixture was spotted onto Millipore Multiscreen-PH™ opaque plates and washed twice for 10 minutes in 1% phosphoric acid. The plates were dried at 40° C. for 30 minutes, then substrate-phosphate complexes were quantitated by scintillation counting. […]\nInhibition of ILK by the test compounds is measured by scintillation counting of the incorporation of radioactive phosphate onto a specific substrate which is immobilized onto a filter paper at the end of the assay. […]\nThe “baseline activity” is the amount of radioactivity incorporated in the absence of a target inhibitor."}, "HUVEC": {"system": "HUVEC", "settings": "HUVEC on Matrigel, VEGF 1 ng/mL, 5 hours", "method": "Angiogenesis, the formation of new blood vessels from pre-existing endothelium, is a critical process involved in numerous physiological and pathological conditions. Disruption of this tightly regulated process has been implicated in both chronic inflammation and solid tumour growth. The Matrigel™ morphogenesis assay is an in vitro model used to mimic the process by which endothelial cells form capillaries in vivo. Human umbilical vein endothelial cells (HUVECs) were plated over matrigel, a complex mixture of solubilized basement membrane components, and cultured in serum poor medium with specific growth factors and in the presence of the test compound. […] After 5 hours of incubation in a 5% CO2-humidified atmosphere at 37° C., the three-dimensional organization of the cells (the capillary-like structures) was examined using an inverted photomicroscope. The cells were fixed with crystal violet (0.05% in 20% ethanol) and photographed using a digital camera. Qualitative analysis was accomplished by comparing the pattern, size and integrity of the vessels formed in the test wells with those of the VEGF control wells. Quantitative analysis was performed on the images collected using the Image-Pro Plus software program."}, "ConA 1° splenocytes": {"system": "ConA 1° splenocytes", "test": "Survival of ConA 1° splenocytes (cytotoxicity by MTS staining)", "type": "cell-based, mouse", "settings": "Mus musculus, Splenocyte, ConA-stimulated splenocytes", "method": "The working concentration of ConA was […]. A 20× working concentration of Concanavalin A was […] was prepared using RPMI-5. The test compounds, dimethylsulfoxide (DMSO) negative vehicle control and staurosporine positive control were diluted twenty times using RPMI-5. Ten μL each of DMSO and staurosporine were combined with 180 μl of medium containing splenocytes in the wells, and 10 μl of 50 μg/ml ConA was immediately added. Medium without ConA was added to the control wells. […] The plates were incubated at 37° C. in 5% CO2 in humidified conditions overnight (18-24 hours) for INFγ.\n(MTS). The MTS solution was made fresh and under low light. The electron coupling reagent phenazine methosulfate (PMS) was added at the time of the assay. Twenty μL of MTS solution per 100 μl of tissue culture medium was added to each well. The plates were incubated 37° C. for 4 hours for unstimulated and 18-24 ConA stimulated splenocytes. The absorbance was read at 490 nm wavelength. A kit available to do this assay is “CellTiter 96® AQ Kit AQueous Kit (G5421)” by Promega."}, "IL-12 on macrophages": {"system": "IL-12 on macrophages", "test": "Inhibition of IL-12 release from stimulated macrophages", "type": "cell-based, mouse", "settings": "Mus musculus, Macrophage; LPS and IFN-γ stimulated primary macrophages, ELISA", "method": "Peritoneal exudate macrophages were isolated by peritoneal lavage with ice-cold sterile physiological saline 24 hours after intraperitoneal injection of BALB/c mice with 0.5 mL of sterile Zymosan A (1 mg/0.5 mL 0.9% saline). […] Murine primary macrophage are activated following incubation with LPS in the presence of sub-optimal doses of IFN-γ. Upon activation, macrophages participate actively in the onset of inflammation by releasing bioactive molecules that amplify the initial inflammatory response. […] Briefly, IL-12 levels in the supernatants from stimulated macrophages were determined with PharMingen's OptEIA™ ELISA set developed using an anti-mouse IL-12 antibody pair and mouse rIL-12 standard (PharMingen). Maxisorp™ F16 multiwell strips (Nunc, Roskilde, Denmark) were coated with anti-mouse IL-12 capture Ab (at recommended concentration) in 0.1 M NaHCO3, pH 9.5, 100 μL/well, overnight at 4° C. […] Plates were washed 3× with PBST and duplicate samples (100 μL/well) or standards (100 μL/well) in diluent buffer were incubated for 2 h. Plates were washed five times with PBST and incubated with biotinylated anti-mouse IL-12 and avidin-horseradish peroxidase (HRP) conjugate (at concentrations recommended by the manufacturer) for 1 h. […] Peritoneal exudate macrophages were isolated by peritoneal lavage with ice-cold sterile physiological saline 24 hours after intraperitoneal injection of BALB/c mice with 0.3 ml of sterile zymosan A (1 mg/0.5 mL 0.9% saline). […] All treatments were replicated six times. Cells were incubated for an additional 24 hours, and cell free culture supernatants from each well were collected for NO and cytokine determination. The remaining cells were stained with crystal violet to determine effect of the compound on cell survival."}, "macrophages": {"system": "macrophages", "test": "Survival of macrophages", "type": "cell-based, mouse", "settings": "Mus musculus, Macrophage; stimulated primary macrophages", "method": "Peritoneal exudate macrophages were isolated by peritoneal lavage with ice-cold sterile physiological saline 24 hours after intraperitoneal injection of BALB/c mice with 0.3 ml of sterile zymosan A (1 mg/0.5 mL 0.9% saline). […] 1.5×10^5 cells/well were seeded in 96-well plates and followed by 3 hour incubation at 37° C. with 5% CO2 (macrophages were allowed to attach) cells were stimulated with LPS ([…]/mL) and IFN-γ (100 U/mL) in the absence or presence of the test compounds. All treatments were replicated six times. Cells were incubated for an additional 24 hours, and cell free culture supernatants from each well were collected for NO and cytokine determination. The remaining cells were stained with crystal violet to determine effect of the compound on cell survival."}, "[1]": {"system": "Nitric Oxide On Stimulated Macrophages", "test": "Inhibition of nitric oxide on stimulated macrophages", "type": "cell-based", "settings": "Mus musculus, Macrophage, 25 μM compound", "method": "Peritoneal exudate macrophages were isolated by peritoneal lavage with ice-cold sterile physiological saline 24 hours after intraperitoneal injection of BALB/c mice with 0.3 ml of sterile zymosan A (1 mg/0.5 mL 0.9% saline). […] All treatments were replicated six times. Cells were incubated for an additional 24 hours, and cell free culture supernatants from each well were collected for NO and cytokine determination. The remaining cells were stained with crystal violet to determine effect of the compound on cell survival. […] The absorbance at 550 nm was determined. All measurements were performed six times."}},
  "data": [
    {"smiles": "Oc1ccc(-c2n[nH]cc2-c2nc3ccccc3s2)c(O)c1", "note": "[4-(4-Benzothiazol-2-yl-1H-pyrazol-3-yl)-benzene-1,3-diol]", "values": [
      {"measurement": "inhibition at 25 µM", "setting": "PC3 Cells", "value": 44.8, "unit": "%"},
      {"measurement": "IC50", "setting": "ILK", "value": 3.3, "unit": "µM"}
    ]},
    {"smiles": "Nc1n[nH]c(N)c1-c1nc2ccccc2s1", "note": "[4-Benzothiazol-2-yl-1H-pyrazole-3,5-diamine]", "values": [
      {"measurement": "% Inhibition of angiogenesis", "setting": "HUVEC", "value": 32, "unit": "%"}
    ]},
    {"smiles": "Cc1[nH]nc(N)c1-c1nc2ccccc2s1", "note": "[4-Benzothiazol-2-yl-5-methyl-1H-pyrazol-3-ylamine]", "values": [
      {"measurement": "% Inhibition of angiogenesis", "setting": "HUVEC", "value": 64, "unit": "%"}
    ]},
    {"smiles": "CSc1[nH]nc(N)c1-c1nc2ccccc2s1", "note": "[4-Benzothiazol-2-yl-5-methylsulfanyl-1H-pyrazol-3-ylamine]", "values": [
      {"measurement": "% Inhibition of angiogenesis", "setting": "HUVEC", "value": 84, "unit": "%"}
    ]},
    {"smiles": "Nc1[nH]nc(-c2ccncc2)c1-c1nc2ccccc2s1", "note": "[4-Benzothiazol-2-yl-5-pyridin-4-yl-2H-pyrazol-3-ylamine]", "values": [
      {"measurement": "IC50", "setting": "ConA 1° splenocytes", "value": "> 25", "unit": "µM"},
      {"measurement": "IC50", "setting": "IL-12 on macrophages", "value": "> 25", "unit": "µM"},
      {"measurement": "IC50", "setting": "macrophages", "value": "> 25", "unit": "µM"}
    ]},
    {"smiles": "Nc1n[nH]c(N2CCCC2)c1-c1nc2ccccc2s1", "note": "[4-Benzothiazol-2-yl-5-pyrrolidin-1-yl-1H-pyrazol-3-ylamine]", "values": [
      {"measurement": "% Inhibition of angiogenesis", "setting": "HUVEC", "value": 50, "unit": "%"}
    ]},
    {"smiles": "Nc1n[nH]c(Nc2ccc3ncccc3c2)c1-c1nc2ccccc2s1", "note": "[4-Benzothiazol-2-yl-N^5-quinolin-6-yl-1H-pyrazole-3,5-diamine]", "values": [
      {"measurement": "inhibition at 25 µM", "setting": "[1]", "value": 66.1, "unit": "%"},
      {"measurement": "inhibition at 25 µM", "setting": "PC3 Cells", "value": 81, "unit": "%"}
    ]}
  ]
}
